Results from publication PMC9218946, “Identification of a Subtype-Selective Allosteric Inhibitor of GluN1/GluN3 NMDA Receptors” (Frontiers in Pharmacology, 2022).

Tests used:
GluN1/GluN2A = biological target: T1, GluN1/GluN2A (Homo sapiens, UniProt Q05586+Q12879); test: GluN1/GluN2A currents (data analyzed from Figure 3D, TEVC in Xenopus oocytes); format: cell-based; conditions: 30 μM WZB117
T1 construct: expressed in transfected cells; host or cells: Xenopus oocytes
Protocol: Two-electrode voltage-clamp (TEVC) recordings were performed on Xenopus oocytes expressing various subtypes of recombinant NMDARs. Each oocyte was injected with a mixture of 0.5–1.0 ng cDNAs or cRNAs encoding wild-type (WT) or mutant GluN1 (GluN1-1a or GluN1-4a) and GluN2 (2A-2D) or GluN3 (3A-3B) at a ratio of 1:1. The mutant GluN1-4a ^F484A/T518L was injected together with GluN3B to boost the currents of GluN1/GluN3B receptors, and WT GluN1-1a was used unless otherwise stated. The cRNAs of GluN1-4a, GluN3A and GluN3B were transcribed from corresponding DNAs using the mMESSAGE mMACHINE T7 Ultra kit (Life Technologies) according to the manufacturer’s instructions, and the others not specified were cDNAs. TEVC recording was performed 24–72 h post injection in extracellular solution containing (in mM): 100 NaCl, 0.3 BaCl2, 2.5 KCl, 0.01 DTPA and 5 HEPES, and the pH was adjusted to 7.3 using NaOH. All recordings were carried out at a holding potential of −60 mV.
Supplementary Figure S3 Effects of WZB117 on currents from HEK-293 cells co-expressing GluN1/GluN2A/GluN3A subunits. GluN1/GluN2A/GluN3A receptors were expressed on HEK-293 cells at a ratio of GluN1-EGFP: GluN2A: GluN3A = 1:1:2. The GluN1/GluN2A/GluN3A receptors were stimulated by 100 μM glutamate and 100 μM glycine. The data of GluN1/GluN2A were analyzed from Figure 3D. […]

GluN1/GluN3A receptors = GluN1/GluN3A receptors (UniProt Q05586+Q9R1M7); test: Whole-cell patch-clamp recording on GluN1/GluN3A Flp-in T-REx 293 stable cell lines; format: cell-based, human GluN1-1a, rat GluN3A; parameters: expressed in transfected cells
Sequence of GluN1/GluN3A receptors (Q9R1M7 24-1135, other chains not shown): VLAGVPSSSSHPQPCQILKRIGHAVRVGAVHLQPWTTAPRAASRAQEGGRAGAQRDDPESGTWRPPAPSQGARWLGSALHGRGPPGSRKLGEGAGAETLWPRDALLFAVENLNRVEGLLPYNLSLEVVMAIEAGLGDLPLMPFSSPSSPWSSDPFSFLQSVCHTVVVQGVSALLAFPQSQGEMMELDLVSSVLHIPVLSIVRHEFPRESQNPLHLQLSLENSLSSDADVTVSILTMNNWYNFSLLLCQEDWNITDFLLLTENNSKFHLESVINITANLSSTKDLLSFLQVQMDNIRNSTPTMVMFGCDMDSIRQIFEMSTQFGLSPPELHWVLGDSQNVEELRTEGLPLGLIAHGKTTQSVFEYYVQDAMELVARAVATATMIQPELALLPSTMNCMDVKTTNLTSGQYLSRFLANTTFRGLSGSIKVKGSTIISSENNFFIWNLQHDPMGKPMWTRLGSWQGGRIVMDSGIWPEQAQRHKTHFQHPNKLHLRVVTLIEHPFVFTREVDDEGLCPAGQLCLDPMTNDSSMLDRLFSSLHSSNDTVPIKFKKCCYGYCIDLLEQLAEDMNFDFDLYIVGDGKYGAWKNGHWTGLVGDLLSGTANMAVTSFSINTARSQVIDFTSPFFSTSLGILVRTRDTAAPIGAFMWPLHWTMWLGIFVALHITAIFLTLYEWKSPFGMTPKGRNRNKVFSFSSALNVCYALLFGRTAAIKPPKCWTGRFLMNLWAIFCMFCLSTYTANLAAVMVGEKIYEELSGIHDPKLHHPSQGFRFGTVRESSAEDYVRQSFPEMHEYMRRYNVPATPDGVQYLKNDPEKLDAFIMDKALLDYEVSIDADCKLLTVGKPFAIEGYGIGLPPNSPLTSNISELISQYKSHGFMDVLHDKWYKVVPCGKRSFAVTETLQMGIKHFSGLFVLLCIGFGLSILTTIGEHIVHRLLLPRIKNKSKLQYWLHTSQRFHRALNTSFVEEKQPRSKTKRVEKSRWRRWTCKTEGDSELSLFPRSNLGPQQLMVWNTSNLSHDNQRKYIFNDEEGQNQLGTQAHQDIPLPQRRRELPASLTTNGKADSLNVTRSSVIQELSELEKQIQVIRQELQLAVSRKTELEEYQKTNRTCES
Protocol: To establish GluN1/GluN3A stable cell lines, the human GluN1-1a (GenBank: NP_015566.1) and the rat GluN3A (GenBank: NP_612555.1) genes were subcloned into the pcDNA5-FRT-To and pcDNA3.1 vectors, respectively. An EGFP tag was added to the C-terminus of GluN1 or GluN3A using a T2A linker for identification of transfected cells during transient transfection. Point mutations were introduced by site-directed mutagenesis using PrimeSTAR (Takara). The human GluN2A (GenBank: NP_000824.1) gene was subcloned into the pcDNA3.1 vector. The chimeras GluN3A^670-673 MWPL/LEPF and GluN2A^550-553 LEPF/MWPL were generated using In-Fusion HD Cloning kits (Takara). All constructs were confirmed by DNA sequencing (Beijing Genomics Institute).
The Flp-in T-Rex 293 cell lines (Invitrogen), stably expressing GluN1/GluN3A were grown in DMEM basal medium (Gibco) supplemented with 10% fetal bovine serum (FBS, Invitrogen), 15 μg/ml blasticidin S (Invitrogen), 50 μg/ml hygromycin B (Invitrogen) and 500 μg/ml G418 (Gibco). Expression in cell lines was induced with 1 μg/ml doxycycline (Invitrogen) 24–28 h prior to the experiments. Chinese hamster ovary (CHO) cells were grown in DMEM-F12 basal medium (Gibco) supplemented with 10% FBS. In the study on the action sites of WZB117, all whole-cell patch-clamp recordings were performed on CHO cells. The transfections were carried out using Lipofectamine 3000 transfection reagent (Thermo Fisher) according to the manufacturer’s instructions. All cells mentioned above were cultured in a 5% CO2 incubator at 37°C and passaged every other day at a ratio of 1:3.
Whole-cell patch-clamp recordings were performed at room temperature (22–25°C) using an EPC-10 amplifier and Patch Master Software (HEKA). Pipettes were pulled from borosilicate glass capillaries (World Precision Instruments), and the resistances were 3–5 MΩ when filled with the intracellular solution. The extracellular solution contained (in mM): 140 NaCl, 2.8 KCl, 1 CaCl2, 10 HEPES and 20 sucrose (290–300 mOsm), pH adjusted to 7.3 using NaOH. The pipette solution contained (in mM): 115 CsF, 10 CsCl, 10 HEPES and 10 BAPTA (280–290 mOsm), pH adjusted to 7.2 using CsOH ([Grand et al., 2018]). When recording in hippocampal neurons, the extracellular solution contained (in mM): 140 NaCl, 5 KCl, 1 CaCl2, 1.25 MgCl2, 10 glucose, and 10 HEPES, and the pH was adjusted to 7.4 using NaOH, and the pipette solution contained (in mM): 140 KCl, 1 MgCl2, 10 EGTA, and 10 HEPES, and the pH was adjusted to 7.2 using KOH ([Xie et al., 2020]). Drug-containing solutions were applied through an RSC-200 Rapid Solution Changer with a 9-tube head (BioLogic Co., France), in which the cell is positioned close to the output of a capillary. The solution, containing either one drug or a combination of different drugs, to be assayed flows out of the capillary at a moderate flow rate by gravity. The lifted cell, exposed to this stream, rapidly equilibrates in the perfusion solution. Whole-cell patch-clamp recordings in heterologous cells and hippocampal neurons were performed at a holding potential of −60 mV. Currents were sampled at 10 kHz and low pass filtered at 2.9 kHz. To record the native GluN1/GluN3 receptor-mediated currents, the extracellular solution was supplemented with 10 μM bicuculline (Sigma-Aldrich), 2 μM NBQX (Topscience), 100 μM D-APV (MCE), and 50 μM strychnine (UHN Shanghai) to block γ-aminobutyric acid type A (GABAA), α-amino-3-hydroxy-5-methylisoxazole-4-propionate (AMPA), GluN1/GluN2 NMDA and glycine receptors, respectively. To record the native GluN2-NMDARs-mediated currents, 10 μM bicuculline and 2 μM NBQX were added into the extracellular solution to block GABAA receptors and AMPA receptors, respectively ([Grand et al., 2018]; [Otsu et al., 2019]; [Zhu et al., 2020]).
Patch-clamp data were processed using Clampfit 10.4 (Molecular Device, Sunnyvale, CA, United States) and analyzed with GraphPad Prism 5.0 (GraphPad Software, San Diego, CA, United States). […]

T1 sequence (Q12879 23-1464, other chains not shown): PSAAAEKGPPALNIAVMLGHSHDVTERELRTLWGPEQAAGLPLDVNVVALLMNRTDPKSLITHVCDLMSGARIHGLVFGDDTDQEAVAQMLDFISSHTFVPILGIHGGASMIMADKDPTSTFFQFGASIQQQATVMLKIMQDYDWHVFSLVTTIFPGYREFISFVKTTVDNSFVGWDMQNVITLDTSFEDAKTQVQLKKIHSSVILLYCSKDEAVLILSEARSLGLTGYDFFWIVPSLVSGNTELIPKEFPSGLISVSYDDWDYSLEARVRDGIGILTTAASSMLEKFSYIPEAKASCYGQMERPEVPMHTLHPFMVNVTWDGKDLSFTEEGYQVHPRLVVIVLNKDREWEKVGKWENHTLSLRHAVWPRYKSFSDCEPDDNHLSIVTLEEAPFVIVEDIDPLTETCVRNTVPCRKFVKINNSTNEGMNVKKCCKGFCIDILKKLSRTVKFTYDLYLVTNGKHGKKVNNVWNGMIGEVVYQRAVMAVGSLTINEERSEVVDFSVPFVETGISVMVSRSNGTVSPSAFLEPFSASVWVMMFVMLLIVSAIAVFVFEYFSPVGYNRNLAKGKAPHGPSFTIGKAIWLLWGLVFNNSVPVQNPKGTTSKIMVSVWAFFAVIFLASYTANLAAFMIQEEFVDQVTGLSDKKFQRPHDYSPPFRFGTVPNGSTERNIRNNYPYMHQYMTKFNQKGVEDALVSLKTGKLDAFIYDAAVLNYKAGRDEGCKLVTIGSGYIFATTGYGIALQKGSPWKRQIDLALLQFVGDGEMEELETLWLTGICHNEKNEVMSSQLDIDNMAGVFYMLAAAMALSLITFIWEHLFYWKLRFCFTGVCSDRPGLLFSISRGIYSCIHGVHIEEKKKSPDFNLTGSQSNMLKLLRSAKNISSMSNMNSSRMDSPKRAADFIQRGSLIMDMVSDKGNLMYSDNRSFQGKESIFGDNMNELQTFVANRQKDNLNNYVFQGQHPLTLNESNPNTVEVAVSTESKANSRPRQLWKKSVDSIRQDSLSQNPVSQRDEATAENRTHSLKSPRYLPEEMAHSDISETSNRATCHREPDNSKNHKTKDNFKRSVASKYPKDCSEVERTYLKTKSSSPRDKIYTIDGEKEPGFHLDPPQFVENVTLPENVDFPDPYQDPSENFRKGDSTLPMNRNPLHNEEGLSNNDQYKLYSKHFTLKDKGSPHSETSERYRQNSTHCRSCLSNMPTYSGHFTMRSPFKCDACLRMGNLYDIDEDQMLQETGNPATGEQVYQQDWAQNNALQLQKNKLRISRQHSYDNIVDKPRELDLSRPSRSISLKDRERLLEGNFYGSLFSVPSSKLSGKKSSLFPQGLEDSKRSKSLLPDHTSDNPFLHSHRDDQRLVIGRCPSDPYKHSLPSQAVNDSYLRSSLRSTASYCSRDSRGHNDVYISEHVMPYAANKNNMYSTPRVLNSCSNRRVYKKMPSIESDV

I drug/I cotrol (GluN1/GluN2A): 0.84 ± 0.01
IC50 (GluN1/GluN3A receptors; 10 μM glycine): 1.08 ± 0.31 µM
IC50 (GluN1/GluN3A receptors; 100 μM glycine, pH 7.3, holding potential −60 mV): 1.15 ± 0.34 µM
remaining activity at 3 µM (GluN1/GluN3A receptors; Flp-In-T-REx-293, read-out: I drug/I control): 8 ± 2%
Compound: O=C(Oc1cccc(F)c1OC(=O)c1cccc(O)c1)c1cccc(O)c1 [WZB117, 3-fluoro-1,2-phenylene bis(3-hydroxybenzoate)]
